These compounds were tested on MRSA (assay: Activity against a strain of MRSA pathogen, relative to thienamycin). Settings: relative to the effectiveness of thienamycin, arbitrarily assigned an effectiveness of 1; one strain of MRSA.
Assay type: cell-based, methicillin resistant Staphylococcus aureus
Description: The activity of the following compounds was measured against a strain of MRSA pathogen and reported as relative to the effectiveness of thienamycin, which is arbitrarily assigned an effectiveness of 1. Regarding this measure of activity, reference is made to R. Guthikonda, et al., J. Med. Chem., 30, 871 (1987). [drawing 18]
In the case of `C[C@@H](O)[C@H]1C(=O)N2C(C(=O)O)=C(c3cccc(Br)c3)C[C@H]12` [R^a1 = Br, R^a2 = H, sodium (5R,6S)-2-[3-bromophenyl]-6[(1R)-1-hydroxyethyl]-carbapen-2-em-3-carboxylate], the “ANTI-INFECTIVE ACTIVITY MRSA” value is reported as 14.
With `C[C@@H](O)[C@H]1C(=O)N2C(C(=O)O)=C(c3cccc(Cl)c3)C[C@H]12` [R^a1 = Cl, R^a2 = H] the “ANTI-INFECTIVE ACTIVITY MRSA” value was 8.1.
In the case of `C[C@@H](O)[C@H]1C(=O)N2C(C(=O)O)=C(c3cccc(F)c3)C[C@H]12` [R^a1 = F, R^a2 = H], the “ANTI-INFECTIVE ACTIVITY MRSA” value is reported as 2.
`C[C@@H](O)[C@H]1C(=O)N2C(C(=O)O)=C(c3ccc(Br)cc3)C[C@H]12` [R^a1 = H, R^a2 = Br] was tested, and the “ANTI-INFECTIVE ACTIVITY MRSA” value was 1.6.
For `C[C@@H](O)[C@H]1C(=O)N2C(C(=O)O)=C(c3ccc(Cl)cc3)C[C@H]12` [R^a1 = H, R^a2 = Cl], the “ANTI-INFECTIVE ACTIVITY MRSA” value was 1.3.
With `C[C@@H](O)[C@H]1C(=O)N2C(C(=O)O)=C(c3ccc(F)cc3)C[C@H]12` [R^a1 = H, R^a2 = F] the “ANTI-INFECTIVE ACTIVITY MRSA” value was 1.1.
With `C[C@@H](O)[C@H]1C(=O)N2C(C(=O)O)=C(c3ccc(I)cc3)C[C@H]12` [R^a1 = H, R^a2 = I] the “ANTI-INFECTIVE ACTIVITY MRSA” value was 1.8.
